Measured values: ChEMBL document CHEMBL1201862, “PubChem BioAssay data set” (2004)
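Test compounds were applied to cells in 96-well plates for 48 hours at 5 doses. GI50 marks 50% less growth.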 The source made the active and inactive calls. Cut-off read from the data, not from the text of the source: active = GI50 up to about 1.1 µM and inactive = higher.

Columns and labels:
Test in all cases: DTP human tumour cell line panel, 48 h
HCC 2998 = test system: HCC 2998
ACHN = test system: ACHN
HCT-116 = test system: HCT-116
SW-620 = test system: SW-620
DLD-1 = test system: DLD-1
SK-MEL-2 = test system: SK-MEL-2
UACC-62 = test system: UACC-62
SF-295 = test system: SF-295
CCRF-CEM = test system: CCRF-CEM
M14 = test system: M14
MOLT-4 = test system: MOLT-4
KM12 = test system: KM12
COLO 205 = test system: COLO 205
LOX IMVI = test system: LOX IMVI
NCI-H460 = test system: NCI-H460
SN12C = test system: SN12C
A549 = test system: A549
DU-145 = test system: DU-145
NCI/ADR-RES = test system: NCI/ADR-RES
MDA-MB-435 = test system: MDA-MB-435

Measured: GI50

CCCCCCCCC(C)CCCCCCCCC(=O)OCC(COP(=O)([O-])OCC[N+](C)(C)C)OC(=O)CCCCCCCCC(C)CCCCCCCC (stereo not given)
inactive: HCC 2998 > 100 µM | ACHN > 100 µM | HCT-116 > 100 µM | SW-620 > 100 µM | DLD-1 > 100 µM | SK-MEL-2 > 100 µM | UACC-62 > 100 µM | SF-295 > 100 µM | CCRF-CEM > 100 µM | M14 > 100 µM | MOLT-4 > 100 µM | KM12 > 100 µM | COLO 205 > 100 µM | LOX IMVI > 100 µM | NCI-H460 > 100 µM | SN12C > 100 µM | A549 > 100 µM

Cc1ccc2[nH]c(=O)c(C(C#N)c3ccccc3)nc2c1 (stereo not given)
inactive: HCC 2998 28.2 µM | ACHN 50.9 µM | HCT-116 33.7 µM | SW-620 43.8 µM | DLD-1 42.6 µM | SK-MEL-2 20 µM | UACC-62 26.5 µM | SF-295 30.4 µM | CCRF-CEM 32.7 µM | M14 41.8 µM | MOLT-4 20.9 µM | KM12 32 µM | COLO 205 27 µM | LOX IMVI 34.4 µM | NCI-H460 72.3 µM | SN12C 49.5 µM | A549 35.5 µM

COc1ccc(C2C(Cl)C(=O)N2NC(=O)c2ccc(N)cc2)cc1OC (stereo not given)
inactive: HCC 2998 8.11 µM | DU-145 16.4 µM | NCI/ADR-RES 1.97 µM | ACHN 13.7 µM | MDA-MB-435 5.87 µM | HCT-116 1.5 µM | SW-620 3.27 µM | DLD-1 3.66 µM | SK-MEL-2 11.9 µM | UACC-62 7.29 µM | SF-295 7.16 µM | CCRF-CEM 1.71 µM | M14 8.43 µM | MOLT-4 1.96 µM | KM12 1.52 µM | COLO 205 11.9 µM | LOX IMVI 1.5 µM | NCI-H460 20.1 µM | SN12C 9.95 µM | A549 15.4 µM

OCC(O)C(O)C(O)C1SC(c2ccccc2)=NN1c1ccccc1 (stereo not given)
inactive: HCC 2998 > 100 µM | DU-145 > 61 µM | NCI/ADR-RES > 70.1 µM | ACHN 64.7 µM | MDA-MB-435 97.9 µM | HCT-116 69.5 µM | SW-620 > 100 µM | DLD-1 > 100 µM | SK-MEL-2 41.7 µM | UACC-62 47 µM | SF-295 35.1 µM | CCRF-CEM > 81.5 µM | M14 83 µM | MOLT-4 > 81.3 µM | KM12 > 100 µM | COLO 205 > 100 µM | LOX IMVI 50.7 µM | NCI-H460 > 78 µM | SN12C > 91.8 µM | A549 78.3 µM

O=[N+]([O-])c1cc(Cl)ccc1OCc1ccccc1
inactive: HCC 2998 > 100 µM | ACHN 51.4 µM | HCT-116 55.6 µM | SW-620 > 100 µM | DLD-1 82.2 µM | SK-MEL-2 > 100 µM | UACC-62 > 100 µM | SF-295 56.6 µM | CCRF-CEM 40.9 µM | M14 83.6 µM | MOLT-4 27.9 µM | KM12 > 100 µM | COLO 205 > 100 µM | LOX IMVI 40.8 µM | NCI-H460 55.8 µM | SN12C > 100 µM | A549 26.2 µM

CC(=O)c1cccc(NC(=O)C(=O)C(C2OC(=O)c3ccccc32)[N+](=O)[O-])c1 (stereo not given)
inactive: HCC 2998 > 100 µM | ACHN > 100 µM | HCT-116 > 100 µM | SW-620 > 100 µM | DLD-1 > 100 µM | SK-MEL-2 > 100 µM | UACC-62 > 100 µM | SF-295 > 100 µM | CCRF-CEM > 100 µM | M14 > 100 µM | MOLT-4 > 100 µM | KM12 > 100 µM | COLO 205 > 100 µM | LOX IMVI > 100 µM | NCI-H460 > 100 µM | SN12C > 100 µM | A549 > 100 µM

CCN(CC)CCCC(C)NC(=O)c1ccc2c(c1)C(=O)c1ccccc1C2=O (stereo not given)
inactive: HCC 2998 18.1 µM | ACHN 18.1 µM | HCT-116 18.6 µM | SW-620 13.6 µM | DLD-1 17.5 µM | SK-MEL-2 19.5 µM | UACC-62 20.5 µM | SF-295 21.4 µM | CCRF-CEM 21.7 µM | M14 18.1 µM | MOLT-4 16.6 µM | KM12 15.4 µM | COLO 205 8.38 µM | LOX IMVI 15.9 µM | NCI-H460 16.4 µM | SN12C 18.1 µM | A549 21.7 µM
